Experimental data taken from publication PMC12308784, “Organometallic Half-Sandwich Complexes of 1,10-Phenanthroline Derivatives with Improved Solubility, Albumin-Binding, and Nanoformulation Potential Targeting Drug Resistance in Cancer” (Inorganic Chemistry, 2025).

Assays:
[1] = ternary complex formation with histidine model 1-methylimidazole by 1H NMR; details: PBS’ pH 7.4
Text: Our other aim was to investigate the binding kinetics of RuCymBP over a longer period of time, since MeIm has no such stability problems compared to HSA in a 2 week follow-up.
Slow exchange of the aqua and chlorido complexes on the NMR time scale is not unique for RuCym complexes; formerly we have observed the same phenomenon with 2-picolinate and cyclometalated 4-phenylthiazole complexes. , The ternary complex formation with MeIm is rather slow; at a 1:1 ratio, the emergence of a new peak can be observed after 6 days, and only ca. 10% ternary complex forms after 14 days. By increasing the MeIm excess to 10-fold, the ternary complex becomes detectable after 8 h and about 2/3 of the metal complex transforms to the ternary species after 14 days. ^1H NMR studies on the RhCp*BP – MeIm system indicated a more rapid and almost quantitative interaction (Figure S21). […] The quantity of the ternary complex formed with MeIm agrees very well with previously reported data on RhCp*BPY–MeIm (67%), although the complex formation was reported to be slower for the latter. […]
A Bruker AVANCE III HD Ascend 500 Plus instrument was used for NMR studies. For the characterization of the complexes both the ^1H and ^13C NMR spectra were recorded in CD3OD (10 mM, t = 25 °C). […]
Figure S 19. Fluorescence emission spectra of HSA in the presence of RhCp*BP over 5 h { cRhCp*BP = […]

[2] = biological target: T1, human serum albumin (HSA) (Homo sapiens, UniProt P02768); assay: HSA binding by capillary zone electrophoresis (CZE); details: for equiv of complex bound on HSA: CZE
T1 construct: purchased Sigma-Aldrich A8763
T1 sequence (P02768 25-609): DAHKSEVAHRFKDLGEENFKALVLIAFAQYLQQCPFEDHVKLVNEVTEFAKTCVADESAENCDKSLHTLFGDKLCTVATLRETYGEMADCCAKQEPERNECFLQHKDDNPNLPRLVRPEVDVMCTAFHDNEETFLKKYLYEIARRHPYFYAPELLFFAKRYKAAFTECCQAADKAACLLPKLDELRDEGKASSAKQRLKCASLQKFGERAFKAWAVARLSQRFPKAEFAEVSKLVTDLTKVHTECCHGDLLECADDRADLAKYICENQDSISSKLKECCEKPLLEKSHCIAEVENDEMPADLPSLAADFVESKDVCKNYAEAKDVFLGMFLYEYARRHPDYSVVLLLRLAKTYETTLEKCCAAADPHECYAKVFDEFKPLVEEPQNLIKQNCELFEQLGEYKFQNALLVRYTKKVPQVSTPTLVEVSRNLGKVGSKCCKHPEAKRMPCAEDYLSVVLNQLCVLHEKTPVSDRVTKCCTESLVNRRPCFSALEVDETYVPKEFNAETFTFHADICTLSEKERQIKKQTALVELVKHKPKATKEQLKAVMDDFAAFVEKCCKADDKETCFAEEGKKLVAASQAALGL
Protocol: UV–vis is a simple technique to follow the interaction of half-sandwich metal complexes with HSA in time. Charge transfer bands of the complexes were monitored over a 12 h period (as shown for the RhCp*BP – HSA (1.5:1) system in Figure S16). An initial rapid spectral change can be observed, which is followed by a slower spectral evolution. This phenomenon may indicate (i) a rapid binding interaction followed by a slow rearrangement of the coordination sphere around the Rh center or (ii) that the differing accessibility of binding sites results in biphasic binding kinetics. […] In contrast, minimal spectral changes were detected for the RuCym complexes. […] To further substantiate this observation, CZE was applied. In Figure , the peak of the free RhCp*BP complex is clearly separated from the peaks of the comigrating protein and the protein-bound complex. […] Whereas ca. 50% of the complex is protein-bound after the first 5 min, the equilibration takes ca. 3–4 h. This observation confirms that the accessibility of binding sites for the complexes is not equal in HSA.
6 (a) Electropherograms of the RhCp*BP complex in the absence and presence of 0.5 equiv HSA at pH = 7.4 followed in time and (b) the relative peak area of free RhCp*BP at 210 nm (migration time: 7.4 min) as a function of incubation time. {c complex = 95 μM, c HSA = 48 μM; U = 8 kV; current = 105 μA; PBS’; t = 25 °C}.
The interaction of complex [RhCp*(BP)-Cl]Cl (ca. 100 μM) with HSA (ca. 50 μM) in PBS’ medium was studied by an Agilent 7100 capillary electrophoresis system equipped with a diode-array UV–vis detector (200–600 nm). Fused silica capillaries of 48 cm total length with a 75 μm inner diameter were used (Agilent Technologies). The background electrolyte (BGE) was PBS’ buffer (pH = 7.4), in which the samples were also made. The conditioning process of new capillaries and daily preparation were performed as described formerly. In order to ensure a steady baseline, the capillary was flushed with BGE (2 min) before each run and was rinsed with NaOH (0.1 M; 1.5 min), H2O (1.5 min), and then with BGE (2 min) after each run. The capillary cassette was kept at 25 °C. The hydrodynamic injection was used at 50 mbar for 5 s injection time. For separation, an 8 kV voltage (with ca. 100 μA current) was applied. The sample run time was set to 18 min. The computer program ChemStation (Agilent) was used to record electropherograms.

[3] = time-dependent stability in PBS’ by UV–vis and 1H NMR; assay type: physicochemical; details: pH 7.4, 100 mM chloride
Protocol: As a first step, time-dependent stability measurements were conducted by UV–visible (UV–vis) for all the metal complexes (Figure S13), focusing on their stability in a modified phosphate buffer saline (PBS’) medium to mimic conditions relevant to intravenous applications regarding the pH (7.4) and the chloride ion concentration (100 mM). […] Unfortunately, determining the equilibrium constants for direct complex formation was not possible due to the poor solubility of the ligands in water. […] The robust stability of the analogous IrCp* complexes was also reported.
Figure S14. Time-dependent UV -Vis spectra of metal complexes (a) cRuCymBP = 69 µM; (b) cRhCp*BP =
66 µM; (c) cRuCymDCP = 99 µM; (d) cRhCp*DCP = 85 µM) in PBS' buffer over 24 h (a-d). Spectra were recorded
Figure S15. Time-dependent 1H NMR spectra of metal complex RhCp*BP (66 µM) at pH 7.40 over 5 days.
{10% (v/v) D2O / 90% (v/v) H2O; PBS’; t = 25 °C} […]

[4] = 0.5 equiv HSA, PBS’ pH 7.4, 25 °C
[5] = c complex = 95 μM, c HSA = 48 μM, PBS’ pH 7.4, 25 °C

Row | Compound | time until the ternary complex is detectable ([1]; 10-fold MeIm excess) | time until the ternary complex peak emerges ([1]; complex:MeIm 1:1) | free complex after 4 h [2, 4] | equiv of complex bound on HSA [2] | complex protein-bound after the first 5 min [2, 5] | equilibration time of HSA binding [2, 5] | stability in PBS’ over 24 h [3] | metal complex unbound after 24 h [2, 4]
1 | Cc1ccc(C(C)C)cc1.[Cl-].[Cl-].[Ru+2].c1ccc(-c2ccnc3c2ccc2c(-c4ccccc4)ccnc23)cc1 [RuCymBP, [Ru(II)(η^6-p-cymene)(bathophenanthroline)Cl]Cl] | 8 h | 6 days | – | – | – | – | – | –
2 | [Rh(III)(η^5-C5Me5)(bathophenanthroline)Cl]Cl [RhCp*BP] | – | – | 7% | at least 2 equiv | ca. 50% | 3 to 4 h | no changes | –
3 | Cc1c(C)c(C)[c-](C)c1C.Clc1ccnc2c1ccc1c(Cl)ccnc12.[Cl-].[Cl-].[Rh+3] [RhCp*DCP, [Rh(III)(η^5-C5Me5)(4,7-dichloro-1,10-phenanthroline)Cl]Cl] | – | – | – | at least 2 equiv | – | – | – | 21%
